Data reported in US20130122127A1, “Extract of Coptidis Rhizoma and novel use thereof in treating respiratory disease” (AHN-GOOK PHARMACEUTICAL CO., LTD., priority 2008, published 2013).
Values joined by “and” are separate entries in the source; they are usually repeats but may differ in a detail not shown here. Equal values may be shown once.

What was measured:
[1] = tested on: OVA-sensitized Balb/c mouse; assay: Murine asthma model: airway hyper-responsiveness (AHR) to methacholine; type: in vivo; details: 30 mg/kg oral, Day 14-20
Protocol: (§1) And, for evaluation, examination of airway hyper-responsiveness (AHR) for methacholine, examination of IgE value in blood plasma, examination of the number of cells and the distribution of white blood cells in bronchoalveolar lavage fluid (BALF), observation of pulmonary tissue, and RT-PCR (IL-1β, IL-4, IL-13r2a) were conducted.
(§2) To a Balb/c mouse (18˜21 g, Orientbio Inc.), an ovalbumin (OVA, Sigma) solution prepared for intraperitoneal injection was intraperitoneally administered in an amount of 500 ul (20 ug as OVA) per one mouse at Day 0 and Day 7, and it was sensitized with a solution prepared for OVA inhalation using a nebulizer (NE-U17, OMRON Co. Ltd, Japan) and then, the prepared 5% OVA solution was inhaled everyday for 30 minutes from Day 14 to Day 20. As positive control drug, 30 mg/kg of montelukast sodium was used, and all the experiment materials were used in an amount of 200 mg/kg. And, positive control drug and the experiment materials were orally administered everyday one hour before OVA inhalation for 7 days of from Day 14 to Day 20 after sensitization, and then, experiments were conducted by the following evaluation items.
24 hours after final inhalation of OVA (at Day 21), the mouse was put in a whole body plethysmograph (BUXCO, USA), each 0.4 ml of methacholine solutions of concentrations of 0, 10 and 20 mg/ml were taken to introduce in an aerosol, and inhaled to the mouse respectively for 3 minutes. And, Penh were measured for 4 minutes from the inhalation time, and the average value was set as Penh (enhanced pause) at corresponding dosage of methacholine.

immunoglobulin E (IgE) = assay: Murine asthma model: IgE value in blood plasma (ELISA); type: in vivo, mouse; details: Day 21, 30 mg/kg oral
Protocol: as §1
as §2, with “And, positive control drug and the experiment materials were orally administered everyday one hour before OVA inhalation for 7 days of from Day 14 to Day 20 after sensitization, and then, experiments were conducted by the following evaluation items.” left out
For the animal measured according to 1), about 0.05 ml of blood was collected by orbital blood sampling and centrifuged, and the obtained plasma was divided into two parts and diluted to 1:10 to examine immunoglobulin E (IgE) value in plasma through IgE enzyme linked immunosorbent assay (ELISA; IgE ELISA kit for mouse, ME-151, SHIBAYAGI Co., Ltd., JAPAN).

[2] = tested on: neutrophils and eosinophils in BALF; assay: Murine asthma model: number of cells in bronchoalveolar lavage fluid (BALF); type: in vivo, mouse; details: Day 22, 30 mg/kg oral
Protocol: as §1
as §2, with “And, positive control drug and the experiment materials were orally administered everyday one hour before OVA inhalation for 7 days of from Day 14 to Day 20 after sensitization, and then, experiments were conducted by the following evaluation items.” left out
To the animals whose blood was sampled according to 2), sodium pentothal (50 mg/kg) was injected intraperitoneally to anesthetize it. […] For the suspension, the numbers of total leucocytes, neutrophils, eosinophils and lymphocytes were measured using automated hematology analyzers (Advia 120 coulter counter, BAYER, Germany).

pulmonary tissue = assay: Murine asthma model: observation of pulmonary tissue; type: in vivo, mouse; details: score 1=No, 2=slight, 3=thin, 4=moderate, 5=thick; 30 mg/kg oral
Protocol: as §1, §2
The left lung fixed with a nipper was taken off and fixed with a 10% formalin solution for one day, and then, paraffin-penetrated tissue using a tissue processor was cut to a thickness of 3-4 um using a microtome to make tissue fragments. […]

IL-1β = assay: Murine asthma model: RT-PCR of lung tissue, IL-1β; type: in vivo, mouse; details: band density divided by actin density, 30 mg/kg oral
Protocol: as §1
as §2, with “And, positive control drug and the experiment materials were orally administered everyday one hour before OVA inhalation for 7 days of from Day 14 to Day 20 after sensitization, and then, experiments were conducted by the following evaluation items.” left out
(§3) Right pulmonary tissue was rapidly taken off and stored at −80° C. before experiment. RNA was separated from the tissue using RNA-Bee (Tel-Test Inc. USA), and the separated RNA was quantified at 260 nm using a spectrometer, and then, 4 ug of RNA and Oligo dT 2 ul (Promega), DEPC water were added to make 10 ul and the mixture was reacted at 65 r for 5 minutes. […]

IL-4 = assay: Murine asthma model: RT-PCR of lung tissue, IL-4; type: in vivo, mouse; details: band density divided by actin density, 30 mg/kg oral
Protocol: as §1
as §2, with “And, positive control drug and the experiment materials were orally administered everyday one hour before OVA inhalation for 7 days of from Day 14 to Day 20 after sensitization, and then, experiments were conducted by the following evaluation items.” left out
as §3

IL-13r2a = assay: Murine asthma model: RT-PCR of lung tissue, IL-13r2a; type: in vivo, mouse; details: band density divided by actin density, 30 mg/kg oral
Protocol: as §1
as §2, with “And, positive control drug and the experiment materials were orally administered everyday one hour before OVA inhalation for 7 days of from Day 14 to Day 20 after sensitization, and then, experiments were conducted by the following evaluation items.” left out
as §3

male mouse = assay: Expectorant activity, phenol red secretion method in mouse; type: in vivo
Protocol: In order to measure expectorant activities of Coptidis Rhizoma extracts of the Examples 1-1 to 1-3, experiment was conducted using Engler et al. method ([…]. Pharmacol. Moth. 11, 151 157, 1984, Bao-quin Lin et., Pulmonary Pharmacology & Therapeutics 21, 259 263, 2008.) in the following procedure. A positive control drug (ambroxol, Sigma) and test drugs (Coptidis Rhizoma extract of Examples 1-1 to 1-3) were orally administered to a male mouse (8-weeks age, Sam tako BioKorea), and after 30 minutes, 500 mg/kg of phenol red was intraperitoneally injected (phenol red was dissolved in saline). After 30 minutes, the mouse was anesthetized with diethyl ether, exsanguinated by cutting the abdominal aorta, and then the whole trachea was resected. […] In order to evaluate expectorant activities of the combined extract and single extract prepared in the Example 2 (2-1 to 2-11), experiment was conducted by the same method as described in [Experiment method] of Experiment 3-1, using Engler, et al. method ([…]. Pharmacol. Moth. 11, 151 157, 1984., Bao-quin Lin et., Pulmonary Pharmacology & Therapeutics 21, 259 263, 2008.), of which results are shown in FIG. 2.

male guinea pig = assay: Antitussive activity, citric acid-induced cough in guinea pig; type: in vivo; details: oral 50 mg/kg, 0.2M citric acid
Protocol: In order to measure antitussive activity of Coptidis Rhizoma extracts of Examples 1-1 to 1-3, experiment was conducted using Tanaka et al. method (Motomu Tanaka and Kei Maruyama., J. Pharmacol. Sci. 93, 465˜470, 2003., Daoui, Cognon, Naline et., Am. J. Respir. Crit. Care. Med. 158, 42˜48, 1998) in the following procedure.
A test drug was orally administered to a male guinea pig (6-weeks age, Sam tako BioKorea), and after 1 hour, the guinea pig was put in a plethysmograph chamber (Buxco, U.S.A.), and then, a cough inducer, citric acid (Sigma) was nebulized to induce cough. As positive control, theobromine (Sigma) which is used as an antitussive was used. And, the guinea pig was exposed to 0.2M citric acid for 10 minutes, and the number of coughs occurred was measured for 15 minutes.
In order to measure antitussive activities of 5 sub-fractions prepared in the above Example 1-4, experiment for antitussive activity was conducted by the same method as Experiment 3-2, of which results are presented in the following Table 7. […]

peritoneal mast cell = assay: Antihistamine activity, compound 48/80-induced histamine release from peritoneal mast cells of ovalbumin-sensitized rat; type: cell-based; details: oral dosage 5 mg/kg
Protocol: In order to measure antihistamine activity of Coptidis Rhizoma extract of Examples 1-1 to 1-3, experiment was conducted using Honuchi et al. method (Masako Honuchi and Yoshiyuki Seyama, J. Health Sci., 52(6), 711˜717, 2006., Naoki Inagaki et al. Biol. Pharm. Bull. 24(7), 829˜834, 2001.) in the following procedure.
Antihistamine effect was measured using peritoneal mast cell of a male rat (7-weeks age, Sam tako BioKorea) sensitized with ovalbumin As positive control, Ketotifen (Sigma) was used. To a rat sensitized with ovalbumin, Ketotifen was orally administered at a concentration of 5 mg/kg, and test drugs were orally administered respectively at a concentration of 200 mg/kg for 4 days, and then, peritoneal mast cells were separated. The separated peritoneal mast cells (2×10^5 cells/ml) were treated with Ketotifen at concentrations of 0.01 mg/ml, 0.1 mg/ml, and 1.0 mg/ml, and test drugs at concentrations of 0.1 mg/ml, 1.0 mg/ml, and 10 mg/ml. Finally, the mast cells were treated with compound 48/80 (Sigma) which activates non-immunological histamine release at a concentration of 10 μg/ml. At this time, the amount of histamine released from mast cells was quantified to examine whether the test materials suppress release of histamine from the mast cells. The relative amount of histamine released from mast cell in a rat to which no drug was administered was measured, of which results are presented in the following Table 5.
In order to measure antihistamine activities of 5 sub-fractions prepared in the above Example 1-4, the same experiment was conducted as the above Experiment 3-3, of which results are presented in the following Table 8.
In order to measure antihistamine effect of ivy leaf extract, and combined extract of Coptidis Rhizoma with ivy leaf (Examples 2-1 to 2-11) prepared in Example 2 in mast cell, experiment was conducted by the same method as described in [Experiment method] in Experiment 3-3 using Honuchi et al. method (Masako Honuchi and Yoshiyuki Seyama, J. Health Sci., 52(6), 711˜717, 2006., Naoki Inagaki et. Biol. Pharm. Bull. 24(7), 829˜834, 2001.), of which results are presented in the following Table 13.

Structure (SMILES): CC(C)(O)c1ccccc1CC[C@@H](SCC1(CC(=O)O)CC1)c1cccc(/C=C/c2ccc3ccc(Cl)cc3n2)c1 [montelukast, montelukast sodium]
- Penh value according to methacholine dosage ([1]; methacholine 0 mg/ml): 1.5 ± 0.2
- Penh value according to methacholine dosage ([1]; methacholine 10 mg/ml): 8.4 ± 2.4
- Penh value according to methacholine dosage ([1]; methacholine 20 mg/ml): 19.8 ± 5.4
- IgE level (immunoglobulin E (IgE)): 13.7 ± 5.7 ng/mL
- WBC EOS (eosinophil) [2]: 466.0 ± 207.0 ×10^3 cells
- WBC NEU (neutrophil) [2]: 22.3 ± 7.2 ×10^3 cells
- Microscope observation: Degree of infiltration of inflammatory cells (pulmonary tissue): 3.7 ± 0.5
- Microscope observation: Degree of occlusion of bronchus (pulmonary tissue): 3.5 ± 0.5
- Degree of cytokine expression IL-1β (IL-1β): 0.51 ± 0.26
- Degree of cytokine expression IL-4 (IL-4): 1.47 ± 0.48
- Degree of cytokine expression IL-13r2a (IL-13r2a): 0.37 ± 0.31

Structure (SMILES): COc1ccc2cc3[n+](cc2c1OC)CCc1cc2c(cc1-3)OCO2 [Berberine, berberine]
- Capacity to discharge sputum (%) (male mouse; oral 125 mg/kg): 39%

Structure (SMILES): Nc1c(Br)cc(Br)cc1CN[C@H]1CC[C@H](O)CC1 [Ambroxol, ambroxol]
- Capacity to discharge sputum (%) (male mouse; oral 250 mg/kg): 34%
- Capacity to secrete sputum (%) (male mouse; oral 250 mg/kg, 250 mg/kg): 32% and 30%

Structure (SMILES): Cn1cnc2c1c(=O)[nH]c(=O)n2C [Theobromine, theobromine]
- Capacity to suppress cough (%) (male guinea pig): 57% and 56%

Structure (SMILES): CN1CCC(=C2c3ccccc3CC(=O)c3sccc32)CC1 [Ketotifen]
- Histamine release amount (%) (peritoneal mast cell; mast cell treatment 0 mg/ml): 43% and 44%
- Histamine release amount (%) (peritoneal mast cell; mast cell treatment 0.01 mg/ml): 41%
- Histamine release amount (%) (peritoneal mast cell; mast cell treatment 0.1 mg/ml): 32%
- Histamine release amount (%) (peritoneal mast cell; mast cell treatment 1.0 mg/ml): 18% and 19%
